Test results as given in US20030059338A1, “Methods for sterilizing biological materials using flavonoid/flavonol stabilizers” (priority 2001, published 2003).

How the values were obtained:
thrombin = assay: Thrombin clotting activity (chromagenic) of lyophilized thrombin after gamma irradiation with stabilizer (Example 3); type: biochemical; conditions: lyophilized thrombin + 10% BSA, 48.5-51.2 kGy at 1.846-1.949 kGy/hr, 4° C.; epicatechin 200 mM, purpurogallin 1M, biacalein 50 mM
Method: Samples of thrombin (100 NIH units, 1 ml), alone or in the presence of epicatechin (200 mM) or purpurogallin (1M, Aldrich) or biacalein (50 mM; Aldrich), and 10% bovine serum albumin, were prepared and lyophilized. Lyophilized samples were gamma irradiated to 48.5-51.2 kGy at a dose rate of 1.846-1.949 kGy/hr at 4° C. All samples were then assayed for clotting activity by conventional chromagenic methodology.

[1] = test system: anti-insulin monoclonal immunoglobulin; assay: ELISA activity of freeze-dried anti-insulin monoclonal immunoglobulin after gamma irradiation with stabilizer (Example 1); type: binding; conditions: freeze-dried anti-insulin mAb + 1% BSA, irradiated to 45 kGy at 1.83 kGy/hr, 4° C.; diosmin 39.3 mM or silymarin 246 mM
Method: Samples were prepared by combining anti-insulin monoclonal antibody ([…] of 2 mg/ml solution) and either diosmin (39.3 mM; Sigma cat# D3525 lot 125H0831) or silymarin (246 mM; Aldrich cat #24592-4) in 3 ml glass vials with 13 mm stoppers. Samples were freeze-dried for approximately 64 hours and stoppered under vacuum and sealed with an aluminum, crimped seal. Samples were irradiated at a dose rate of 1.83 kGy/hr to a total dose of 45 kGy at 4° C. Monoclonal immunoglobulin activity was determined by a standard ELISA protocol. Maxisorp plates were coated with human recombinant insulin at […] overnight at 4° C. The plate was blocked with […] of blocking buffer (PBS, pH 7.4, 2% BSA) for two hours at 37° C. and then washed six times with wash buffer (TBS, pH 7, 0.05% TWEEN 20). Samples were re-suspended in […] of high purity water (100 ng/ml), diluted to 5 Fg/ml in a 300 Fl U-bottomed plate coated for either overnight or two hours with blocking buffer. Serial 3-fold dilutions were performed, with a final concentration of […]. Plates were incubated for one hour at 37° C. with agitation and then washed six times with a wash buffer. Phosphatase-labelled goat anti-mouse IgG (H+L) was diluted to 50 ng/ml in binding buffer and […] was added to each well. […] The plate was read on a Multiskan MCC/340 at 405 nm with the background absorbance at 620 nm subtracted.

| Structure (SMILES) | thrombin activity retained following gamma irradiation (thrombin) | recovery of activity [1] [%] |
| --- | --- | --- |
| O=c1cc(-c2ccccc2)oc2cc(O)c(O)c(O)c12 [biacalein] | about 57% | – |
| COc1ccc(-c2cc(=O)c3c(O)cc(O[C@@H]4O[C@H](CO[C@@H]5O[C@@H](C)[C@H](O)[C@@H](O)[C@H]5O)[C@@H](O)[C@H](O)[C@H]4O)cc3o2)cc1O [diosmin] | – | ~62 |
| O=c1c(O)cccc2cc(O)c(O)c(O)c12 [purpurogallin] | over 90% | – |
